In one assay the target is Histone deacetylase. Type of assay: protein assay, Homo sapiens.
Assay [1] addresses Histone deacetylase 3/Nuclear receptor corepressor 2 (HDAC3/NCoR2) (Homo sapiens, UniProt O15379). Type of assay: protein-complex assay.
Description: Displacement of fluorescent 5-(3-(3-(4-((4-((7-(hydroxyamino)-7-oxoheptyl)carbamoyl)phenylamino)methyl)-1H-1,2,3-triazol-1-yl)propyl)thioureido)-2-(3-hydroxy-6-oxo-6H-xanthen-9-yl)benzoic acid from human HDAC3/NcoR2 by fluorescence polarization assay
In assay [2] the target is T1, Protein deacetylase HDAC6 (Homo sapiens, UniProt Q9UBN7).
T1 sequence (Q9UBN7 whole entry): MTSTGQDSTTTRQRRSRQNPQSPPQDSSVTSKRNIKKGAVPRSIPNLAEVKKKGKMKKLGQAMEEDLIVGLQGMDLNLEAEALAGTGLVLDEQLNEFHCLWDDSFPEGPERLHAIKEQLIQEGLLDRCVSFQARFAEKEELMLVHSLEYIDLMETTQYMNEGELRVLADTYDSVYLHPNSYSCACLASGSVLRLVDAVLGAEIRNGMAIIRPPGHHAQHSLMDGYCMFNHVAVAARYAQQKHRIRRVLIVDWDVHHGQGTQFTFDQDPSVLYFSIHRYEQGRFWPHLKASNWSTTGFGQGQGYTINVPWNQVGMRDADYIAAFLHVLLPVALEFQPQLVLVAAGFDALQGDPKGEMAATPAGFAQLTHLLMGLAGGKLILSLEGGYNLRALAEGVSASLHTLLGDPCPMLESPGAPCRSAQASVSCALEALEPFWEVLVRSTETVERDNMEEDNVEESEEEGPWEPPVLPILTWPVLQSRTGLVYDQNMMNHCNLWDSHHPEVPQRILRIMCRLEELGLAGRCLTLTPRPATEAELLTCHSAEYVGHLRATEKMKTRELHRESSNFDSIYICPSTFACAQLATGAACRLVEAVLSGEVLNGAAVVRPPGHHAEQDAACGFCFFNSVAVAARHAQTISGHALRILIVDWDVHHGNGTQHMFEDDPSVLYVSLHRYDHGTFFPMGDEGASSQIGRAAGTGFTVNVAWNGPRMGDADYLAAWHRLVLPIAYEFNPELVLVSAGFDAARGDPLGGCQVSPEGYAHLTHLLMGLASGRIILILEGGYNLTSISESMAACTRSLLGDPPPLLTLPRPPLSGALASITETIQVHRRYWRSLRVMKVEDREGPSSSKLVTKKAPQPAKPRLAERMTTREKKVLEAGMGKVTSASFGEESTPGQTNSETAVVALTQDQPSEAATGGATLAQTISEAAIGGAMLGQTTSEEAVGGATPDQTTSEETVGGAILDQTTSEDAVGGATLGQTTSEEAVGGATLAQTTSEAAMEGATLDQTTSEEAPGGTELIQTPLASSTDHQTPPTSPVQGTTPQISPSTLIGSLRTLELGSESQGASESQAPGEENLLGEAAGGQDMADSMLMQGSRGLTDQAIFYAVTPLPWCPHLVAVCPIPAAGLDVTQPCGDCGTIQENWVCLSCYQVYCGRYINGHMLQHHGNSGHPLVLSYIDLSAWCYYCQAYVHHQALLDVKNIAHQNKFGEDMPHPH
Description: Displacement of fluorescent 5-(3-(3-(4-((4-((7-(hydroxyamino)-7-oxoheptyl)carbamoyl)phenylamino)methyl)-1H-1,2,3-triazol-1-yl)propyl)thioureido)-2-(3-hydroxy-6-oxo-6H-xanthen-9-yl)benzoic acid from human HDAC6 by fluorescence polarization assay

The structures appear in SMILES notation.

Sequence of Histone deacetylase 3/Nuclear receptor corepressor 2 (HDAC3/NCoR2) (O15379 whole entry): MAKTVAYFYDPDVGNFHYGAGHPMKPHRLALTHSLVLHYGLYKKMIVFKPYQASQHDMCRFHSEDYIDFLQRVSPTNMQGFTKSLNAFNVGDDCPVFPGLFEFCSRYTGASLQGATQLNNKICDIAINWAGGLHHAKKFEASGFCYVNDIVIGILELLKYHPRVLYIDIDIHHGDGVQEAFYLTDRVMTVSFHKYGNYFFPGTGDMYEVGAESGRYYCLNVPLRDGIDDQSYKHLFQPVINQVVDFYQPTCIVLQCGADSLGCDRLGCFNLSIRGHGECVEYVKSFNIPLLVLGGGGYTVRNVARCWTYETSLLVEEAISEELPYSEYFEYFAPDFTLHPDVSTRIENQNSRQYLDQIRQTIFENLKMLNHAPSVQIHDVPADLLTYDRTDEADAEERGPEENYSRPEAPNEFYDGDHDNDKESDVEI
Sequence of Histone deacetylase 3/Nuclear receptor corepressor 2 (HDAC3/NCoR2) (Q9Y618 whole entry, further chain): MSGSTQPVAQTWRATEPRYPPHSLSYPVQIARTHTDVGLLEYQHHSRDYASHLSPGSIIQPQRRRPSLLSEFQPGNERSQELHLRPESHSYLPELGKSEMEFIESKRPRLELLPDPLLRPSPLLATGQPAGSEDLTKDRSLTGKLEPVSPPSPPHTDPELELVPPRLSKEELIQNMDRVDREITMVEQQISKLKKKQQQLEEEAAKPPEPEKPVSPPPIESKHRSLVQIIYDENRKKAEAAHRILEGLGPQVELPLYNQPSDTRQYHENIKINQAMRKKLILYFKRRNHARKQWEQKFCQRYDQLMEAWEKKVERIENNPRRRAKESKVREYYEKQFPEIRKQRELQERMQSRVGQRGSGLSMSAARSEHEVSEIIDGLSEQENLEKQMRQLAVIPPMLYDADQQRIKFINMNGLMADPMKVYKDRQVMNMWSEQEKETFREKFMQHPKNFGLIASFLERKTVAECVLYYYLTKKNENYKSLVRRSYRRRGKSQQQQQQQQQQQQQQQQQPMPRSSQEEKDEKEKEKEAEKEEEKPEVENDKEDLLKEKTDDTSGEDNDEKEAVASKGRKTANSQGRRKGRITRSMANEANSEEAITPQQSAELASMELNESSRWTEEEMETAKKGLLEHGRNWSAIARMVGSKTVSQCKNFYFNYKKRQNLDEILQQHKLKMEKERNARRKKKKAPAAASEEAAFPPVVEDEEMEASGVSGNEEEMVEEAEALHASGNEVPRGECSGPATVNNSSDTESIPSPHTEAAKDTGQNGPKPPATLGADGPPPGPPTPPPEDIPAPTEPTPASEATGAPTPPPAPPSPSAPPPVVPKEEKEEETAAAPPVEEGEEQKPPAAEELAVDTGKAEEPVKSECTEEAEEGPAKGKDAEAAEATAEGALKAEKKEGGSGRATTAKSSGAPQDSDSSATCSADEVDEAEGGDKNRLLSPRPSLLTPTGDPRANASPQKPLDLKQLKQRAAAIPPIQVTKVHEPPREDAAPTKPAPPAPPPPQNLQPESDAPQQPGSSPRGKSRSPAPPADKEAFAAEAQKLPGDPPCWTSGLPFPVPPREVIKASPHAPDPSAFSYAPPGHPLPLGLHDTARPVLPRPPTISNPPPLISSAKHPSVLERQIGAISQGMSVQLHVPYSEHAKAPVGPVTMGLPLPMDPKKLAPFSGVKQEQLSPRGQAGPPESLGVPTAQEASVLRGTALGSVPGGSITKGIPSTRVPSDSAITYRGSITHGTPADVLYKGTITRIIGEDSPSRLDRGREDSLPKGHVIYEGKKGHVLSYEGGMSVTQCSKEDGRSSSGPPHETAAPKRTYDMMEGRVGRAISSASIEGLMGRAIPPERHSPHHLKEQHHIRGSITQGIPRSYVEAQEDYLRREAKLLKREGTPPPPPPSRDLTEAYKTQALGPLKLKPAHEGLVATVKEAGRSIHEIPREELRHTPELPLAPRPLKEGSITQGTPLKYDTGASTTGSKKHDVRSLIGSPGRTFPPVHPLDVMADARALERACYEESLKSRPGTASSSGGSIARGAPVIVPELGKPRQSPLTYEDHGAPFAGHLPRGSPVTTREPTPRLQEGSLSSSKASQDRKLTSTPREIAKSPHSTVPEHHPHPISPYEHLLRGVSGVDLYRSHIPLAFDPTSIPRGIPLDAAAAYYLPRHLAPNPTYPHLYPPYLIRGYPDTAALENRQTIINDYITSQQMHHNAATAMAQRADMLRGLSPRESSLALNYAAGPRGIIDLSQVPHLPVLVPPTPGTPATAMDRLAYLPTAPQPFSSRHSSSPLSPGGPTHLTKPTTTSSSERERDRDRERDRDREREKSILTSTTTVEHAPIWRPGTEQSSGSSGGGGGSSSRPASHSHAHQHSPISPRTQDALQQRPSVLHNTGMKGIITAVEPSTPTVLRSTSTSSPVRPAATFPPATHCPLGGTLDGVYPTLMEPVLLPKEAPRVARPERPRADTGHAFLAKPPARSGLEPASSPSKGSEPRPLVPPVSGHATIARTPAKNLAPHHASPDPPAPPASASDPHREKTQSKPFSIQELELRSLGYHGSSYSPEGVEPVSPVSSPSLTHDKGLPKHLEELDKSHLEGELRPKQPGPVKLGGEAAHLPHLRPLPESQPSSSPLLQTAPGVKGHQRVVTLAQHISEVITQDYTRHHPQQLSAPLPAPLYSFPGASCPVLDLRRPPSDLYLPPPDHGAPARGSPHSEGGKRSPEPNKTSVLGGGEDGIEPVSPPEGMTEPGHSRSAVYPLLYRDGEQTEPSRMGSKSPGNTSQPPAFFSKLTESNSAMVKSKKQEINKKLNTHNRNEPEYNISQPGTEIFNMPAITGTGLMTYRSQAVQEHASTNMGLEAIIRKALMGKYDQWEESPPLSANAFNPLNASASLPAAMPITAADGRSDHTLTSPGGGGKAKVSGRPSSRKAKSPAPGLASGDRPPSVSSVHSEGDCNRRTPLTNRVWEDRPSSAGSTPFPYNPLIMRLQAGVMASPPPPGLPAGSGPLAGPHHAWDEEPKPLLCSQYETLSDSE

Broadly, the IC50 is the concentration needed to halve the response being measured. As a reminder, the Ki is the equilibrium dissociation constant of an inhibitor or competing ligand from its target. Higher therefore signals weaker binding. As for `NCCCn1cc(CNc2ccc(C(=O)NCCCCCCC(=O)NO)cc2)nn1`, the IC50 on Histone deacetylase is 0.058 µM; in assay [1], 137 nM; in assay [2], 50.8 nM. For the same molecule, the Ki in assay [1] was found to be 23.1 nM; in assay [2] it was 6.6 nM.

Usually Kd stands for the constant that tells how readily two partners part at equilibrium. A high value points to weaker binding. `O=C(CCCCCCNC(=O)c1ccc(NCc2cn(CCCNC(=S)Nc3ccc(-c4c5ccc(=O)cc-5oc5ccccc45)c(C(=O)O)c3)nn2)cc1)NO`: the equilibrium dissociation constant (Kd) in assay [1] worked out at 2 nM; in assay [2] it was 4.6 nM.

`O=C1CCc2c(ccc3ccccc23)O1` [SPLITOMICIN]: the IC50 is above 75 µM at Histone deacetylase, above 75000 nM in assay [1] and above 75000 nM in assay [2]. Also, the inhibition constant (Ki) in assay [1] and in assay [2] was above 75000 nM in each case.

Values taken from ChEMBL document CHEMBL1145631, “Development of a fluorescence polarization based assay for histone deacetylase ligand discovery” (Bioorg Med Chem Lett, 2008).
